Measurements reported in ChEMBL document CHEMBL5136977, “Discovery of 1-(5-(1H-benzo[d]imidazole-2-yl)-2,4-dimethyl-1H-pyrrol-3-yl)ethan-1-one derivatives as novel and potent bromodomain and extra-terminal (BET) inhibitors with anticancer efficacy” (Eur J Med Chem, 2022).

Columns and labels:
[1] = test system: MV4-11; assay: Antiproliferative activity against human MV4-11 cells assessed as cell growth inhibition at 1 uM incubated for 72 hrs by CellTiter-Glo assay relative to control; assay type: functional
[2] = test system: MV4-11; assay: Antiproliferative activity against human MV4-11 cells assessed as cell growth inhibition incubated for 72 hrs by CellTiter-Glo assay; assay type: functional, cell-based; settings: MV4-11, 72 h
[3] = biological target: T1, Bromodomain-containing protein 4 (Homo sapiens, UniProt O60885); assay: Inhibition of recombinant his tagged BRD4 BD1 (unknown origin) at 2 uM by Alpha screen assay relative to control
[4] = test system: HL-60(TB); assay: Antiproliferative activity against human HL-60(TB) cells assessed as cell growth inhibition measured after 72 hrs by CellTiter-Glo assay; assay type: functional
[5] = test system: UACC-62; assay: Antiproliferative activity against human UACC-62 cells assessed as cell growth inhibition measured after 72 hrs by CellTiter-Glo assay; assay type: functional
[6] = test system: NCI-H522; assay: Antiproliferative activity against human NCI-H522 cells assessed as cell growth inhibition measured after 72 hrs by CellTiter-Glo assay; assay type: functional
[7] = test system: CAKI-1; assay: Antiproliferative activity against human CAKI-1 cells assessed as cell growth inhibition measured after 72 hrs by CellTiter-Glo assay; assay type: functional
[8] = test system: MDA-MB-468; assay: Antiproliferative activity against human MDA-MB-468 cells assessed as cell growth inhibition measured after 72 hrs by CellTiter-Glo assay; assay type: functional
[9] = test system: MV4-11; assay: Antitumor activity against human MV4-11 cells xenografted BALB/c nude mouse model assessed as tumor growth inhibition at 20 mg/kg, po QD administered for 28 consecutive days; assay type: functional; settings: MV4-11, 672 h, time 28 day, read-out: TGI
[10] = test system: HCT-15; assay: Antiproliferative activity against human HCT-15 cells assessed as cell growth inhibition measured after 72 hrs by CellTiter-Glo assay; assay type: functional
[11] = test system: SNB-75; assay: Antiproliferative activity against human SNB-75 cells assessed as cell growth inhibition measured after 72 hrs by CellTiter-Glo assay; assay type: functional
[12] = Metabolic stability in human liver assessed as intrinsic clearance incubated for 1 hr by LC-MS/MS analysis; assay type: ADME, tissue-based; settings: read-out: CLH
[13] = Metabolic stability in monkey liver microsomes assessed as elimination half life incubated for 1 hr by LC-MS/MS analysis; assay type: ADME, Macaca mulatta, Microsome; settings: rhesus monkey, read-out: beta t1/2
[14] = Metabolic stability in human liver microsomes assessed as intrinsic clearance incubated for 1 hr by LC-MS/MS analysis; assay type: ADME, Microsome; settings: read-out: CLH
[15] = Metabolic stability in monkey liver microsomes assessed as intrinsic clearance incubated for 1 hr by LC-MS/MS analysis; assay type: ADME, Macaca mulatta, Microsome; settings: rhesus monkey, read-out: CLH
[16] = Metabolic stability in dog liver assessed as intrinsic clearance incubated for 1 hr by LC-MS/MS analysis; assay type: ADME, tissue-based, Canis lupus familiaris; settings: read-out: CLH
[17] = Metabolic stability in rat liver microsomes assessed as intrinsic clearance incubated for 1 hr by LC-MS/MS analysis; assay type: ADME, Microsome; settings: read-out: CLH
[18] = Metabolic stability in monkey liver assessed as intrinsic clearance incubated for 1 hr by LC-MS/MS analysis; assay type: ADME, tissue-based, Macaca mulatta; settings: rhesus monkey, read-out: CLH
[19] = Metabolic stability in dog liver microsomes assessed as intrinsic clearance incubated for 1 hr by LC-MS/MS analysis; assay type: ADME, Canis lupus familiaris, Microsome; settings: read-out: CLH
[20] = Metabolic stability in rat liver microsomes assessed as elimination half life incubated for 1 hr by LC-MS/MS analysis; assay type: ADME, Microsome; settings: read-out: beta t1/2
[21] = Metabolic stability in rat liver assessed as intrinsic clearance incubated for 1 hr by LC-MS/MS analysis; assay type: ADME, tissue-based; settings: read-out: CLH
[22] = Metabolic stability in human liver microsomes assessed as elimination half life incubated for 1 hr by LC-MS/MS analysis; assay type: ADME, Microsome; settings: read-out: beta t1/2
[23] = Metabolic stability in dog liver microsomes assessed as elimination half life incubated for 1 hr by LC-MS/MS analysis; assay type: ADME, Canis lupus familiaris, Microsome; settings: read-out: beta t1/2
[24] = biological target: T1, Bromodomain-containing protein 4; assay: Inhibition of Alexa647 labelled MS417 binding to his tagged BRD4 BD1 (unknown origin) by TR-FRET assay

Structure (SMILES): CC(=O)c1c(C)[nH]c(-c2nc3cc(N4CCN(C)CC4)ccc3[nH]2)c1-c1cnn(C)c1
- inhibition at 1 µM [1]: 53%

Structure (SMILES): CC(=O)c1c(C)[nH]c(-c2nc3cc(N4CCN(C)CC4)ccc3[nH]2)c1-c1ccccc1Cl
- IC50 [2]: 438 nM

Structure (SMILES): Cc1sc2c(c1C)C(c1ccc(Cl)cc1)=N[C@@H](CC(=O)OC(C)(C)C)c1nnc(C)n1-2
- IC50 [2]: 157 nM

Structure (SMILES): CCS(=O)(=O)N1CCN(c2ccc3[nH]c(-c4[nH]c(C)c(C(C)=O)c4C)nc3c2)CC1
- IC50 [2]: 1640 nM

Structure (SMILES): CC(=O)c1c(C)[nH]c(-c2nc3cc(N4CCN(C)CC4)ccc3[nH]2)c1-c1ccc2c(c1)OCO2
- IC50 [2]: 161 nM

Structure (SMILES): CCc1c(-c2nc3cc(N4CCN(C)CC4)ccc3[nH]2)[nH]c(C)c1C(C)=O
- IC50 [2]: 617 nM

Structure (SMILES): CC(=O)c1c(C)[nH]c(-c2nc3cc(N4CCN(C)CC4)ccc3[nH]2)c1-c1ccc(Cl)cc1
- IC50 [2]: 291 nM

Structure (SMILES): COc1ccc(-c2c(-c3nc4cc(N5CCN(C)CC5)ccc4[nH]3)[nH]c(C)c2C(C)=O)cc1OC
- IC50 [2]: 426 nM

Structure (SMILES): CCOc1ccc(-c2c(-c3nc4cc(N5CCN(C)CC5)ccc4[nH]3)[nH]c(C)c2C(C)=O)cc1
- IC50 [2]: 192 nM

Structure (SMILES): CC(=O)c1c(C)[nH]c(-c2nc3c([nH]2)=CCC(Nc2ccnc(Cl)n2)C=3)c1C (stereo not drawn)
- inhibition [3]: 91.1%

Structure (SMILES): CC(=O)c1c(C)[nH]c(-c2nc3cc(N4CCN(C)CC4)ccc3[nH]2)c1C
- IC50 [2]: 699 nM

Structure (SMILES): CC(=O)c1c(C)[nH]c(-c2nc3cc(N4CCN(C)CC4)ccc3[nH]2)c1-c1ccc2ccccc2c1
- IC50 [2]: 556 nM

Structure (SMILES): COc1ccccc1-c1c(-c2nc3cc(N4CCN(C)CC4)ccc3[nH]2)[nH]c(C)c1C(C)=O
- inhibition at 1 µM [1]: 25.3%

Structure (SMILES): CCN(CC)c1ccc2[nH]c(-c3[nH]c(C)c(C(C)=O)c3C)nc2c1
- inhibition at 1 µM [1]: 19.7%

Structure (SMILES): CC(=O)c1c(C)[nH]c(-c2nc3cc(N4CCN(C)CC4)ccc3[nH]2)c1C1CCCCC1
- inhibition [3]: 79%

Structure (SMILES): Cc1sc2c(c1C)C(c1ccc(Cl)cc1)=N[C@@H](CC(=O)Nc1ccc(O)cc1)c1nnc(C)n1-2 [BIRABRESIB]
- GI50 [4]: 179 nM
- GI50 [5]: 162 nM
- GI50 [6]: 262 nM
- GI50 [7]: 94.6 nM
- GI50 [8]: 212 nM
- inhibition in vivo at 20 mg/kg [9]: 63.5%
- GI50 [10]: 179 nM
- GI50 [11]: 29.6 nM

Structure (SMILES): CC(=O)c1c(C)[nH]c(-c2nc3cc(N4CCN(C)CC4)ccc3[nH]2)c1-c1ccc(C)cc1
- IC50 [2]: 176 nM

Structure (SMILES): CC(=O)c1c(C)[nH]c(-c2nc3cc(N4CCC(CO)CC4)ccc3[nH]2)c1C
- IC50 [2]: 1560 nM

Structure (SMILES): CC(=O)c1c(C)[nH]c(-c2ccc3cc[nH]c3c2)c1C
- inhibition [3]: 79.5%

Structure (SMILES): CC(=O)c1c(C)[nH]c(-c2nc3cc(N4CCN(C)CC4)ccc3[nH]2)c1-c1cccc(Cl)c1
- IC50 [2]: 321 nM

Structure (SMILES): COc1ccc(-c2c(-c3nc4cc(N5CCN(C)CC5)ccc4[nH]3)[nH]c(C)c2C(C)=O)cc1
- IC50 [2]: 223 nM

Structure (SMILES): CC(=O)c1c(C)[nH]c(-c2cnc3ccccc3c2)c1C
- inhibition [3]: 85.5%

Structure (SMILES): CC(=O)c1c(C)[nH]c(-c2nc3cc(N4CCN(C)CC4)ccc3[nH]2)c1-c1ccc(N(C)C)cc1
- IC50 [2]: 192 nM

Structure (SMILES): CC(=O)c1c(C)[nH]c(-c2nc3ccccc3s2)c1C
- inhibition [3]: 73.6%

Structure (SMILES): CC(=O)c1c(C)[nH]c(-c2ccc3c4ccccc4n(C)c3c2)c1C
- inhibition [3]: 84%

Structure (SMILES): CC(=O)c1c(C)[nH]c(-c2nc3cc(N4CCN(C)CC4)ccc3[nH]2)c1C(C)C
- inhibition [3]: 98.9%

Structure (SMILES): CC(=O)c1c(C)[nH]c(-c2nc3cc(N4CCOCC4)ccc3[nH]2)c1-c1ccccc1
- CLint scaled [12]: 21.4 mL/min/kg
- half-life [13]: 31.6 min
- microsomal CLint [14]: 22.6 µL/min/mg
- microsomal CLint [15]: 43.8 µL/min/mg
- CLint scaled [16]: 44.8 mL/min/kg
- microsomal CLint [17]: 68 µL/min/mg
- CLint scaled [18]: 63.1 mL/min/kg
- IC50 [2]: 318 nM
- microsomal CLint [19]: 31.1 µL/min/mg
- half-life [20]: 20.4 min
- CLint scaled [21]: 122 mL/min/kg
- half-life [22]: 61.4 min
- half-life [23]: 44.6 min

Structure (SMILES): CC(=O)c1c(C)[nH]c(-c2nc3cc(N4CCCCC4)ccc3[nH]2)c1C
- IC50 [2]: 1810 nM

Structure (SMILES): CC(=O)c1c(C)[nH]c(-c2nc3cc(N4CCN(C)CC4)ccc3[nH]2)c1-c1ccc2c(c1)OCCO2
- IC50 [2]: 157 nM

Structure (SMILES): COc1cccc(-c2c(-c3nc4cc(N5CCN(C)CC5)ccc4[nH]3)[nH]c(C)c2C(C)=O)c1
- IC50 [2]: 284 nM

Structure (SMILES): CSc1ccc(-c2c(-c3nc4cc(N5CCN(C)CC5)ccc4[nH]3)[nH]c(C)c2C(C)=O)cc1
- IC50 [2]: 187 nM

Structure (SMILES): CCS(=O)(=O)Nc1ccc(Oc2ccc(F)cc2F)c(-c2cn(C)c(=O)c3[nH]ccc23)c1 [MIVEBRESIB]
- IC50 [24]: 11 nM

Structure (SMILES): CC(=O)c1c(C)[nH]c(-c2nc3cc(N4CCOCC4)ccc3[nH]2)c1C
- inhibition at 1 µM [1]: 21.2%

Structure (SMILES): COc1ccc(-c2c(-c3nc4cc(N5CCN(C)CC5)ccc4[nH]3)[nH]c(C)c2C(C)=O)cc1F
- IC50 [2]: 219 nM
